These results are taken from patent publication US7074789B2, “Kinase inhibitors” (Amgen Inc., priority 1999, dated 2006).

What all share (format): biochemical
In test [1] the target is T1, Fyn (Homo sapiens, UniProt P06241).
T1 construct: Kinases are expressed as either kinase domains or full length constructs; made in house
The test can be described thus: Kinase inhibition assay (33P transfer), Fyn. As to conditions: read-out: Fyn-1. The method, boiled down:
(§1)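 Each enzyme, purified to near homogeneity by affinity chromatography, was incubated with ATP carrying 33P and a substrate polymer fixed to the plate. Unbound label was removed with dilute phosphoric acid (0.5%) before adding scintillant and counting. Potency is given as the compound level cutting label uptake by 50%.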

Test [2] deals with T2, Itk (Homo sapiens, UniProt Q08881).
T2 construct: Kinases are expressed as either kinase domains or full length constructs; made in house
T2 sequence (Q08881 1-620): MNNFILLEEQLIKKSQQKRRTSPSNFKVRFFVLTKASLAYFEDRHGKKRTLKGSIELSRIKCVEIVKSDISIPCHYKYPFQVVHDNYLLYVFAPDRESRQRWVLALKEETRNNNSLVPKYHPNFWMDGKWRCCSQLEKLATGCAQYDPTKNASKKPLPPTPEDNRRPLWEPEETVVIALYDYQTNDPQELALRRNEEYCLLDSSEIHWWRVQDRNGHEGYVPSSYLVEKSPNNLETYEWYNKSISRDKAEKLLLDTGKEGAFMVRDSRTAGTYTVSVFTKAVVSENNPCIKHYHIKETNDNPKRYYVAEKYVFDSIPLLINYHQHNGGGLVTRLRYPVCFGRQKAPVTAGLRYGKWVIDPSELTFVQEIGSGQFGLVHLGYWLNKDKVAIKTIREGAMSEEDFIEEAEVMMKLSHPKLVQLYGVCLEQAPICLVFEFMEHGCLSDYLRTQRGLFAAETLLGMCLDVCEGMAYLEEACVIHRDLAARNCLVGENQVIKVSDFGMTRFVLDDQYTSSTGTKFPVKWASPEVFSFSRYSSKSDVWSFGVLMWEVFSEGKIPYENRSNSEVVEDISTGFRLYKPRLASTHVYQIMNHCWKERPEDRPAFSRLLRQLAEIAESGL
The test is described as follows: Kinase inhibition assay (33P transfer), Itk. As to conditions: Table 3; read-out: Itk-1. In outline:
as §1

In test [3] the target is T3, ErbB2 (Homo sapiens, UniProt P04626).
T3 construct: Kinases are expressed as either kinase domains or full length constructs; made in house
The test is described as follows: Kinase inhibition assay (33P transfer), ErbB2. The note with it: read-out: ErbB2-2. In outline:
as §1

Test [4] concerns the target T4, Kdr (Homo sapiens, UniProt P35968).
T4 construct: Kinases are expressed as either kinase domains or full length constructs; made in house
The test is described as follows: Kinase inhibition assay (33P transfer), Kdr. The note with it: Table 3; read-out: KDR-1. The method, boiled down:
(§2)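 Kinase domain or full-length constructs, GST- or polyHis-tagged, expressed in E. coli or baculovirus-High Five cells, sometimes with regulatory polypeptides. Activity measured as 33PO4 transfer from ATP to plate-bound poly(Glu,Tyr) 4:1 or poly(Arg,Ser) 3:1; after incubation, plates washed with 0.5% phosphoric acid and counted by liquid scintillation.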

Test [5] deals with T5, Flt-1 (Homo sapiens, UniProt P17948).
T5 construct: Kinases are expressed as either kinase domains or full length constructs; made in house
The test is described as follows: Kinase inhibition assay (33P transfer), Flt-1. The method, boiled down:
as §1

Test [6] addresses T6, c-Met (Homo sapiens, UniProt P08581).
T6 construct: Kinases are expressed as either kinase domains or full length constructs; made in house
The test can be described thus: Kinase inhibition assay (33P transfer), c-Met. The note with it: Table 2, kinase inhibition class; read-out: Met-1. In outline: as §1

Test [7] concerns the target T7, AKT (Homo sapiens, UniProt Q9Y243).
T7 construct: Kinases are expressed as either kinase domains or full length constructs; made in house
The test is described as follows: Kinase inhibition assay (33P transfer), AKT. The note with it: Table 2, kinase inhibition class; read-out: AKT3-1. In outline: as §2

Test [8] has as its target T8, IGFR-1 (Homo sapiens, UniProt P08069).
T8 construct: Kinases are expressed as either kinase domains or full length constructs; made in house
The test is described as follows: Kinase inhibition assay (33P transfer), IGFR-1. The note with it: Table 2, kinase inhibition class.

Test [9] addresses T9, PDGFRB (Homo sapiens, UniProt P09619).
T9 construct: Kinases are expressed as either kinase domains or full length constructs; made in house
The test can be described thus: Kinase inhibition assay (33P transfer), PDGFRB. As to conditions: read-out: PDGFRB-1.

Test [10] concerns the target T10, ErbB4 (Homo sapiens, UniProt Q15303).
T10 construct: Kinases are expressed as either kinase domains or full length constructs; made in house
The test is described as follows: Kinase inhibition assay (33P transfer), ErbB4. As to conditions: read-out: ErbB4-1.

Test [11] deals with T11, FGFR1 (Homo sapiens, UniProt P11362).
T11 construct: Kinases are expressed as either kinase domains or full length constructs; made in house
The test is described as follows: Kinase inhibition assay (33P transfer), FGFR1. The note with it: read-out: FGFR1-1.

T7 sequence (Q9Y243 whole entry, the tested form may be a part): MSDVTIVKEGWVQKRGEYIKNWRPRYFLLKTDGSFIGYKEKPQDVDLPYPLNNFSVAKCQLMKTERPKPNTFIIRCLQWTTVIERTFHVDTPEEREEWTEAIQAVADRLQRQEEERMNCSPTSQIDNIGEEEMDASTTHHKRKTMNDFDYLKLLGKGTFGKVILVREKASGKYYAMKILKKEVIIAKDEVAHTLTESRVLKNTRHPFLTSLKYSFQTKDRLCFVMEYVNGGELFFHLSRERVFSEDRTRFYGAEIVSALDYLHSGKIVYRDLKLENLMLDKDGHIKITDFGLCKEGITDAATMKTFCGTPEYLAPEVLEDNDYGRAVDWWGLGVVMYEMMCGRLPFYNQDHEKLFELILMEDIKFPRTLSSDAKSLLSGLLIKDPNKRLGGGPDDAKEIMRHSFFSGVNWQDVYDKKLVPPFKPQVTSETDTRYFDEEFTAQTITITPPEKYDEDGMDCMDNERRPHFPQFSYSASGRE
T8 sequence (P08069 31-1367): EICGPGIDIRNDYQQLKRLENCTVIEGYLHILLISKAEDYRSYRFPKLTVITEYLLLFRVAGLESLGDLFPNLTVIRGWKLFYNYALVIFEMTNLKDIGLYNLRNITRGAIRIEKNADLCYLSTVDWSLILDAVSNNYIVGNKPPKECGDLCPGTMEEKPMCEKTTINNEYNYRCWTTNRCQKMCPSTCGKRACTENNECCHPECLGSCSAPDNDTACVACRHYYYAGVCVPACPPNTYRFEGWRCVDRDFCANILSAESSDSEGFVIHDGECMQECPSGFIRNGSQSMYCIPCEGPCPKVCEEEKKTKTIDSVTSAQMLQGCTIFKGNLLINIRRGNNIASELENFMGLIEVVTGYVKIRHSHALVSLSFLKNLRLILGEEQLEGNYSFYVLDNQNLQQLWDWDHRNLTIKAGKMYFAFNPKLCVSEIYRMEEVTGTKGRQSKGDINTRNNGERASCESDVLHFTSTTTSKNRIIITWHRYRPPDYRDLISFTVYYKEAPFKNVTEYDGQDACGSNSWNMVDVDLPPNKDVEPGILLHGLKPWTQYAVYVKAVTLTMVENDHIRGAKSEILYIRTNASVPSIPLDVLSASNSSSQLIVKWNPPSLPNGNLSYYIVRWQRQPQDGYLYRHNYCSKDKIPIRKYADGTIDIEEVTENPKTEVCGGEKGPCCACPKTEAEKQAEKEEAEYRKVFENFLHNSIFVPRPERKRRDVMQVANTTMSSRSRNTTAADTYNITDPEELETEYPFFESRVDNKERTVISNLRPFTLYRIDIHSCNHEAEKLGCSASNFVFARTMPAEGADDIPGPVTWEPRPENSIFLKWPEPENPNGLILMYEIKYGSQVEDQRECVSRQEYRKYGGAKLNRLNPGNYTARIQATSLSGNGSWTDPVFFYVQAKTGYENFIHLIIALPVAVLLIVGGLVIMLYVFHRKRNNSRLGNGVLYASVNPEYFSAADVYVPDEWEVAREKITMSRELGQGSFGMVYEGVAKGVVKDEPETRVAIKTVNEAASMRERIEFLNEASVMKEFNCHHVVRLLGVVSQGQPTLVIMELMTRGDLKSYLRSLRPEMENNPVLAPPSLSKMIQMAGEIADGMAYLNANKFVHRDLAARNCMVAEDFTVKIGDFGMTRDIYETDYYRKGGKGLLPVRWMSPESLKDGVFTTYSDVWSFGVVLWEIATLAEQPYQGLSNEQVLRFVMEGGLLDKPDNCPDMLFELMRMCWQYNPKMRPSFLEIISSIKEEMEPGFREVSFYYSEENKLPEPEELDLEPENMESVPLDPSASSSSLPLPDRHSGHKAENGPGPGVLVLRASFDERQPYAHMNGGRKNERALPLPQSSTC
T11 sequence (P11362 22-822, species assumed): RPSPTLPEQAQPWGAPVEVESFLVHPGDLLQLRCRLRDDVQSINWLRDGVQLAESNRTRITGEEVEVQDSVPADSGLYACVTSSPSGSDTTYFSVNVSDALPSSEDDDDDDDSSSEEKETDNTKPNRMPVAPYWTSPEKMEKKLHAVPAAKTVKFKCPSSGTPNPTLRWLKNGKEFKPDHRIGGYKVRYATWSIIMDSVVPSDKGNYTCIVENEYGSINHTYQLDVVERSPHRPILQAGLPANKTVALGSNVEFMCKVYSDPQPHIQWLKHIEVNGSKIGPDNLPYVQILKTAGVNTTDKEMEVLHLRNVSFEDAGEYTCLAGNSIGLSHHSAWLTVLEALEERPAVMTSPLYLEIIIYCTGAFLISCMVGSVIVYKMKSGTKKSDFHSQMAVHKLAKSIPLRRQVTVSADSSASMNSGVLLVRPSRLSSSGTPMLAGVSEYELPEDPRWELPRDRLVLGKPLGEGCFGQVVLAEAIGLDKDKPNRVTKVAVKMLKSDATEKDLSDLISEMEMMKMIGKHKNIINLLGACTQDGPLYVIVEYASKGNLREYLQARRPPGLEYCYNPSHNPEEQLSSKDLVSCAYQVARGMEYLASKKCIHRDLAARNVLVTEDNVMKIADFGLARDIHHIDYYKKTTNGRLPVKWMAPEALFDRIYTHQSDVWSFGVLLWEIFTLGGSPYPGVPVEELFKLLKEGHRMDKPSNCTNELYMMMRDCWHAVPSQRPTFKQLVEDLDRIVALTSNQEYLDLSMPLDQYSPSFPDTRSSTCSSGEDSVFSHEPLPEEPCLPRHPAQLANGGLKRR
T3 sequence (P04626 23-1255, species assumed): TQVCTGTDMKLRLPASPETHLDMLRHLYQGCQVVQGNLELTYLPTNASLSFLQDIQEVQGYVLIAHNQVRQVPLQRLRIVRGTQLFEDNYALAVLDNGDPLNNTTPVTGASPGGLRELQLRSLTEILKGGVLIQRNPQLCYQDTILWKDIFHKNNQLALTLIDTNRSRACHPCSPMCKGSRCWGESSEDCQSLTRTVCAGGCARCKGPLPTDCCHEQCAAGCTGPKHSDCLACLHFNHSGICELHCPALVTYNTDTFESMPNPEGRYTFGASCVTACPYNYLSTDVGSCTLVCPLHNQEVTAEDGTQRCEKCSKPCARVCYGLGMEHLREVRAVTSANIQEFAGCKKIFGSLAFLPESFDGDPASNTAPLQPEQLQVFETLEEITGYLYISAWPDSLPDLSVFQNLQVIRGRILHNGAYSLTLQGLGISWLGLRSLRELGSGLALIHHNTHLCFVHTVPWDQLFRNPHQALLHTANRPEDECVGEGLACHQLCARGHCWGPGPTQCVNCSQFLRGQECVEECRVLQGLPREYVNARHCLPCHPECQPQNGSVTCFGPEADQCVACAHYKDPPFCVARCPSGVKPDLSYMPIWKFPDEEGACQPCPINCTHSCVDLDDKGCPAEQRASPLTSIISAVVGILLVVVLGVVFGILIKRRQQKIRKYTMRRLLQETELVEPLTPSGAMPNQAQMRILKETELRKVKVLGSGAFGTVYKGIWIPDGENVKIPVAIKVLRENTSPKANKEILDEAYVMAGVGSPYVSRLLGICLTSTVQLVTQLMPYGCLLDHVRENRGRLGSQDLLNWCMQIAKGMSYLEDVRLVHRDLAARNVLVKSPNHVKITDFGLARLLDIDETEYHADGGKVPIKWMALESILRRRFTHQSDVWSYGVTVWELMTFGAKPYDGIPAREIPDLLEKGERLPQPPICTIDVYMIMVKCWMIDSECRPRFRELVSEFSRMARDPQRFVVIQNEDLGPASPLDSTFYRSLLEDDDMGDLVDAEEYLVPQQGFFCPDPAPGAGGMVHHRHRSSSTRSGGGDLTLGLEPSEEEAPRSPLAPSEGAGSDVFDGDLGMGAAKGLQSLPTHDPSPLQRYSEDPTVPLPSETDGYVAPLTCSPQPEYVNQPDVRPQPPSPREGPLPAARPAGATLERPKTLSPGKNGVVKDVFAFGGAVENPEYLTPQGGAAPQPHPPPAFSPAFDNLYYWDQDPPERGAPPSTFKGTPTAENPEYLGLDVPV
T9 sequence (P09619 33-1106, species assumed): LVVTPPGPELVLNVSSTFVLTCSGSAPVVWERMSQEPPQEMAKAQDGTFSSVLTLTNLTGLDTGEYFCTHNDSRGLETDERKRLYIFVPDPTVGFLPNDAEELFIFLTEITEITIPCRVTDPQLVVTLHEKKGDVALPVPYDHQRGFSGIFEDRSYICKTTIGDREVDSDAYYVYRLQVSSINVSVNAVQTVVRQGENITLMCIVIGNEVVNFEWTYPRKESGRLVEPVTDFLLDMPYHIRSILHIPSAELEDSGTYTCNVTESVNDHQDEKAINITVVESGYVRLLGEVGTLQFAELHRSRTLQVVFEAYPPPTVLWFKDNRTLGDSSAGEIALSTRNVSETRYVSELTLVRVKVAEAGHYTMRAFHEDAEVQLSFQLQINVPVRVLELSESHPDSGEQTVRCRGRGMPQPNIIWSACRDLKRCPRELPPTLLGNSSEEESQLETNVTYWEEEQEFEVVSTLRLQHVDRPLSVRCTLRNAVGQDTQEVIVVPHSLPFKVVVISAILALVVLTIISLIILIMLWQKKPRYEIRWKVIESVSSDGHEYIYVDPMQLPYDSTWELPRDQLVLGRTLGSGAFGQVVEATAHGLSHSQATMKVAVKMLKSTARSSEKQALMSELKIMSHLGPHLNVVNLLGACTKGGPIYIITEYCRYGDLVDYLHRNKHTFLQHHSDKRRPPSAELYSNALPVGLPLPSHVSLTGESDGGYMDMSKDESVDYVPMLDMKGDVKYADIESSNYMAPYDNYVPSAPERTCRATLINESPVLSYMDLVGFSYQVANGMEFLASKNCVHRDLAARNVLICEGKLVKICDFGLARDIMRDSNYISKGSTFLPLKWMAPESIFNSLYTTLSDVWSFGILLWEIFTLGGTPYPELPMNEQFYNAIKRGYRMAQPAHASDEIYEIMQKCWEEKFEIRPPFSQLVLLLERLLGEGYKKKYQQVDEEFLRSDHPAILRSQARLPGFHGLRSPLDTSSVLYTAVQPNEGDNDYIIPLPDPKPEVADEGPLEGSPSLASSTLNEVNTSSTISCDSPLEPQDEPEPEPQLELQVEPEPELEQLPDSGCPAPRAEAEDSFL

Consider `Cc1cccc(Nc2ncnc(Nc3ccc4[nH]ccc4c3)n2)c1` [Compound 110], for which the IC50 was less than 1260 nM in test [1]; 7.59 to 11.1 µM in [2]; less than 1260 nM in [3]; less than 1260 nM in test [4]; less than 1.26 µM in [5]; 11.1 to 14.2 µM in test [6]. In addition, the IC50 in [7] was greater than 14.2 µM; in test [8], 1.26 to 7.59 µM; in test [9] it was less than 1260 nM; in test [10] it was 1.26 to 7.59 µM; in test [11] it was less than 1.26 µM.

For `Cc1cccc(Nc2ncnc(Nc3ccc4[nH]ncc4c3)n2)c1` [Compound 120], the IC50 in test [1] was 1260 to 7560 nM; in test [2], 7.56 to 11 µM; in test [3] it was 1260 to 7560 nM; in [4], 1260 to 7560 nM; in test [5] it was 1.26 to 7.56 µM; in test [6], 7.56 to 11 µM. Also, the IC50 in [7] is 7.56 to 11 µM; in test [8], less than 1.26 µM; in test [9], less than 1260 nM; in test [10], 1.26 to 7.56 µM; in [11], 1.26 to 7.56 µM.

Turning to `COc1ccc(Nc2ncnc(Nc3cc(OC)c(OC)c(OC)c3)n2)cc1O` [Compound 931], the IC50 is less than 1000 nM in test [1]; greater than 11.3 µM in test [2]; 1000 to 6010 nM in [3]; less than 1000 nM in [4]; less than 1 µM in test [5]; greater than 11.3 µM in [6]. Moreover, the IC50 was greater than 11.3 µM in test [7]; 1 to 6.01 µM in test [8]; less than 1000 nM in test [9]; 1 to 6.01 µM in test [10]; 1 to 6.01 µM in test [11].

For the molecule `COc1cc(Nc2ncnc(Nc3ccc(C)cc3)n2)cc(OC)c1OC` [Compound 930], the IC50 in [1] was less than 1090 nM; in [2], greater than 12.2 µM; in [3], 1090 to 6530 nM; in test [4], less than 1090 nM; in [5] it was 6.53 to 9.53 µM; in test [6], 9.53 to 12.2 µM. The IC50 in [7] was greater than 12.2 µM; in [8] it was 1.09 to 6.53 µM; in [9] it was less than 1090 nM; in test [10], 1.09 to 6.53 µM; in test [11], 6.53 to 9.53 µM.

Take `COc1cc(Nc2ncnc(-n3ccc4cc(OCc5ccccc5)ccc43)n2)cc(OC)c1OC` [Compound 200]: the IC50 in test [1] is greater than 9310 nM; in test [2], greater than 9.31 µM; in [4] it was 4960 to 7240 nM; in test [5], greater than 9.31 µM; in [6], 7.24 to 9.31 µM; in [7] it was greater than 9.31 µM. In addition, the IC50 was greater than 9.31 µM in test [8], 827 to 4960 nM in [9], 4.96 to 7.24 µM in [10] and 7.24 to 9.31 µM in test [11].

In the case of `COc1cc(Nc2ncnc(Nc3ccc(C)c(N)c3)n2)cc(OC)c1OC` [Compound 935], the IC50 in [1] was less than 1050 nM; in [2], 6.28 to 9.15 µM; in test [4] it was less than 1050 nM; in test [5] it was 1.05 to 6.28 µM; in [6] it was greater than 11.8 µM; in test [7] it was greater than 11.8 µM. Moreover, the IC50 in test [8] is 1.05 to 6.28 µM; in test [9], less than 1050 nM; in test [10], 1.05 to 6.28 µM; in test [11] it was 1.05 to 6.28 µM.

Regarding `COc1ccc(Nc2ncnc(Nc3ccc(C)c(O)c3)n2)cc1OC` [Compound 119], the IC50 in test [1] was less than 1130 nM; in test [2] it was 9.9 to 12.7 µM; in test [4] it was less than 1130 nM; in test [5] it was less than 1.13 µM; in test [6] it was greater than 12.7 µM; in test [7] it was greater than 12.7 µM. The IC50 in test [8] is 6.79 to 9.9 µM; in [9], less than 1130 nM; in test [10], 1.13 to 6.79 µM; in test [11], 1.13 to 6.79 µM.

Turning to `COc1cc(Nc2ncnc(Nc3ccc(C)c(F)c3)n2)cc(OC)c1OC` [Compound 300], the IC50 was 1040 to 6230 nM in test [1]; 6.23 to 9.08 µM in test [2]; less than 1040 nM in test [4]; greater than 11.7 µM in test [5]; 6.23 to 9.08 µM in test [6]; greater than 11.7 µM in test [7]. Also, the IC50 is less than 1.04 µM in test [8], less than 1040 nM in test [9], 1.04 to 6.23 µM in [10] and 6.23 to 9.08 µM in test [11].
